For 61 compounds, Ki results are on record in patent publication US7772252B2, “Heterocyclic substituted carbonyl derivatives and their use as dopamine D3 receptor ligands” (Aventis Pharmaceuticals Inc., priority 2001, dated 2010).

Molecules are shown by their SMILES. Like-named read-outs stand apart in the source and are kept apart here.

The assay concerns the target T1, cloned human dopamine D3 receptors (Homo sapiens, UniProt P35462).
T1 construct: expressed in transfected cells; membrane homogenate
In words: [N-Methyl-3H]Spiroperidol binding to cloned human dopamine D3 receptors. A digest of the protocol: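 Radioligand displacement with [N-methyl-3H]spiroperidol was run on membranes from a high-expressing CHO clone carrying human D3. Membranes were prepared in 10% DMSO and stored at −80° C.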

T1 sequence (P35462 whole entry): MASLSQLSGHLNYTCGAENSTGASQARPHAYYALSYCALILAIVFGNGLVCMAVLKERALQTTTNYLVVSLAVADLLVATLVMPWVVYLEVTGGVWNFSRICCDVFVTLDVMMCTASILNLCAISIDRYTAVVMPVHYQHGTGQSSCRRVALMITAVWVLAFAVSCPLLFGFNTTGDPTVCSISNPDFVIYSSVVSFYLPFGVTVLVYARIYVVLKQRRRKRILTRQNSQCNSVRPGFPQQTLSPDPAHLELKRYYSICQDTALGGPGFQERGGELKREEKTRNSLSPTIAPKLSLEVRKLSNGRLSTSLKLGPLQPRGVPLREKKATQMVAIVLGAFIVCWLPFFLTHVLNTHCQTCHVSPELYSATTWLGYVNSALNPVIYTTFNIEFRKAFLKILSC

On to `O=C(NCCCn1ccnc1)[C@@H]1C[C@H]1CN1CCC(c2noc3cc(C(F)(F)F)ccc23)CC1` [A002287765, 2R-[4-(6-Trifluoromethyl-benzo[d]isoxazol-3-yl)-piperidin-1-ylmethyl]-1R-cycloproanecarboxylic acid (3-imidazol-1-yl-propyl)-amide], for which the Ki (read-out: D3 Ki) was determined as 0.011 nM.

For the compound `O=C(C1CC1CN1CCC(c2noc3ccsc23)CC1)N1CCN(S(=O)(=O)c2ccccc2)CC1` (racemic) [compound 831835], the Ki (read-out: D3 Ki) is 234 nM.

Turning to `O=C(NCCSc1ccc(Cl)cc1)C1CC1CN1CCC(c2noc3ccsc23)CC1` (racemic) [compound 832397], the Ki (read-out: D3 Ki) was determined as 51.9 nM.

In the case of `Cn1nc(N2CCN(C[C@@H]3C[C@H]3C(=O)NC3CCN(Cc4ccc(F)c(F)c4)CC3)CC2)c2sccc21` [A002436428], the Ki (read-out: D3 Ki) is 2.17 nM.

In the case of `COc1ccc(CCNC(=O)C2CC2CN2CCC(c3noc4ccsc34)CC2)cc1OC` (racemic) [compound 832186], the Ki (read-out: D3 Ki) turned out to be 16.1 nM.

Take `Cc1cccc(CN2CCC(NC(=O)C3CC3CN3CCC(c4noc5ccsc45)CC3)CC2)c1` (racemic) [compound 832348]: for the setting “read-out: D3 Ki”, the Ki was determined as 0.465 nM.

Regarding `CN1CCN(CCCNC(=O)[C@@H]2C[C@H]2CN2CCC(c3csc4cc(C(F)(F)F)ccc34)CC2)CC1` [A002437517], the Ki (read-out: D3 Ki) amounted to 10.5 nM.

With `O=C(NCCCN1CCOCC1)C1(CCN2CCC(c3noc4ccsc34)CC2)CC1` [compound 832240], under “read-out: D3 Ki”, the Ki amounted to 186 nM.

On to `O=C(NC1CCN(Cc2cccc(Cl)c2)CC1)C1CC1CN1CCC(c2noc3ccsc23)CC1` (racemic) [compound 831995], for which the Ki (read-out: D3 Ki) stood at 4.73 nM.

Consider `COc1cccc2c(C3CCN(C[C@@H]4C[C@H]4C(=O)NCCCn4ccnc4)CC3)noc12` [compound 831880], for which the Ki (read-out: D3 Ki) was 100 nM.

For the compound `O=C([C@@H]1C[C@H]1CN1CCC(c2noc3ccsc23)CC1)N1CCC(c2ccccc2)CC1` [compound 831193], where the note is “read-out: D3 Ki”, the Ki was 23.8 nM.

For `C=CCN1CCN(C(=O)C2CC2CN2CCC(c3noc4ccsc34)CC2)CC1` (racemic) [compound 832189], the Ki (read-out: D3 Ki) came to 58.5 nM.

For the compound `CN1CCN(CCCNC(=O)[C@@H]2C[C@H]2CN2CCN(c3nn(C)c4ccsc34)CC2)CC1` [A002329040], for the setting “read-out: D3 Ki”, the Ki turned out to be 160 nM.

For the compound `O=C([C@@H]1C[C@H]1CN1CCN(c2csc3cc(C(F)(F)F)ccc23)CC1)N1CCC(CCN2CCCC2)CC1` [compound 833514], where the note is “read-out: D3 Ki”, the Ki is 0.36 nM.

In the case of `O=C(NCCc1ccccc1)C1(CCN2CCC(c3noc4ccsc34)CC2)CC1` [compound 832180], the Ki (read-out: D3 Ki) was 91 nM.

As to `O=C(N[C@H]1CC[C@H](O)CC1)[C@@H]1C[C@H]1CN1CCC(c2cc3ccccc3s2)CC1` [compound 831950], where the note is “read-out: D3 Ki”, the Ki came out at 5.48 nM.

Consider `CCN(C(=O)CCCN1CCCN(c2csc3cc(F)ccc23)CC1)C1CCCCC1` [compound 826829], for which the Ki (read-out: d3Ki) is 1.5 nM.

With `O=C([C@@H]1C[C@H]1CN1CCC(c2noc3ccc(C(F)(F)F)cc23)CC1)N1CCCC(Cn2ccnc2)C1` (mixture of isomers) [A002200835], for the setting “read-out: D3 Ki”, the Ki worked out at 0.4 nM.

On to `O=C([C@@H]1C[C@H]1CN1CCN(c2csc3cc(C(F)(F)F)ccc23)CC1)N1CCCC(CN2CCCCC2)C1` (mixture of isomers) [A002437357], for which the Ki (read-out: D3 Ki) amounted to 14 nM.

As to `CC(C)(C)c1ccc(CCNC(=O)[C@@H]2C[C@H]2CN2CCC(c3noc4ccsc34)CC2)cc1` [compound 833129], where the note is “read-out: D3 Ki”, the Ki is 95.3 nM.

Turning to `O=C([C@@H]1C[C@H]1CN1CCN(c2csc3cc(C(F)(F)F)ccc23)CC1)N1CCC[C@H](CO)C1` [A002438636], where the note is “read-out: D3 Ki”, the Ki was found to be 13 nM.

Turning to `O=C(NCCNc1ccccc1)C1CC1CN1CCC(c2noc3ccsc23)CC1` (racemic) [compound 831603], the Ki (read-out: D3 Ki) was 20.9 nM.

As to `O=C(C1CC1CN1CCC(c2noc3ccsc23)CC1)N1CCN(Cc2ccncc2)CC1` (racemic) [compound 831999], the Ki (read-out: D3 Ki) was found to be 473 nM.

For the compound `COc1ccc2c(c1)c(N1CCN(C[C@@H]3C[C@H]3C(=O)NC[C@@H]3CCNC3)CC1)nn2C` [compound 833632], under “read-out: D3 Ki”, the Ki came out at 4.06 nM.

With `O=C(NCCS(=O)(=O)c1cccc2c(Cl)cccc12)C1CC1CN1CCC(c2noc3ccsc23)CC1` (racemic) [compound 831689], where the note is “read-out: D3 Ki”, the Ki was determined as 16.4 nM.

For the compound `O=C([C@@H]1C[C@H]1CN1CCC(c2nsc3cc(Br)ccc23)CC1)N1CCC(Cn2ccnc2)CC1` [A002329098], the Ki (read-out: D3 Ki) came out at 345 nM.

As to `C[C@H]1CC[C@H](NC(=O)[C@@H]2CC[C@H]2CN2CCCN(c3csc4cc(F)ccc34)CC2)CC1` (racemic) [compound 829997], the Ki (read-out: D3 Ki) is 10.4 nM.

As to `CC1CCC(NC(=O)C2CC2CN2CCN(c3nn(-c4ccccc4F)c4ccccc34)CC2)CC1` (racemic) [compound 830114], the Ki (read-out: D3 Ki) came to 5.42 nM.

Take `O=C(C1CC1CN1CCC(c2noc3ccsc23)CC1)N1CCC(c2cc(-c3cccs3)[nH]n2)CC1` (racemic) [compound 831703]: the Ki (read-out: D3 Ki) turned out to be 45 nM.

For `O=C(NCCc1cccc(C(F)(F)F)c1)[C@@H]1C[C@H]1CN1CCC(c2noc3ccsc23)CC1` [compound 833130], the Ki (read-out: D3 Ki) came out at 8.85 nM.

`O=C([C@@H]1C[C@H]1CN1CCC(c2noc3ccsc23)CC1)N1CCN(c2ccc(F)cc2)CC1` [compound 829465]: for the setting “read-out: D3 Ki”, the Ki was 80.3 nM.

For the compound `O=C(NCCCn1ccnc1)[C@@H]1C[C@H]1CN1CCN(c2nn(-c3ccc(OC(F)(F)F)cc3)c3ccsc23)CC1` [compound 833333], the Ki (read-out: D3 Ki) was determined as 8.11 nM.

`CC[C@H]1CC[C@H](NC(=O)[C@@H]2C[C@H]2CN2CCN(c3nn(-c4ccc(C(F)(F)F)cc4)c4ccccc34)CC2)CC1` [compound 831226]: the Ki (read-out: D3 Ki) was 26.7 nM.

As for `O=C(NCCSc1ccc(Cl)cc1)[C@@H]1C[C@H]1CN1CCN(c2csc3cc(C(F)(F)F)ccc23)CC1` [compound 832497], the Ki (read-out: D3 Ki) stood at 38 nM.

Regarding `Cc1cn(CCCNC(=O)[C@@H]2C[C@H]2CN2CCC(c3noc4ccsc34)CC2)c(C)n1` [compound 831938], under “read-out: D3 Ki”, the Ki stood at 33 nM.

Regarding `O=C(NC1CCN(Cc2cc(Cl)cc(Cl)c2)CC1)C1CC1CN1CCC(c2noc3ccsc23)CC1` (racemic) [compound 831819], where the note is “read-out: D3 Ki”, the Ki was 0.1 nM.

For the compound `CN1CCC[C@@H]1CCNC(=O)[C@@H]1C[C@H]1CN1CCN(c2csc3cc(C(F)(F)F)ccc23)CC1` [compound 832216], the Ki (read-out: D3 Ki) was determined as 76.5 nM.

For the compound `COc1ccc2c(c1)c(N1CCN(C[C@@H]3C[C@H]3C(=O)NC3CCN(Cc4cccc(Cl)c4)CC3)CC1)nn2C` [compound 833836], the Ki (read-out: D3 Ki) was 1.36 nM.

Regarding `O=C(NCCc1cccc(C(F)(F)F)c1)C1CC1CN1CCC(c2noc3ccsc23)CC1` (racemic) [compound 832047], the Ki (read-out: D3 Ki) came out at 25.8 nM.

For the compound `O=C(NCC1CCNCC1)[C@@H]1C[C@H]1CN1CCN(c2csc3cc(C(F)(F)F)ccc23)CC1` [compound 832859], where the note is “read-out: D3 Ki”, the Ki came out at 14.3 nM.

For the compound `CCC1CCC(NC(=O)C2CC2CN2C3CCC2CC(c2n[nH]c4cc(F)ccc24)C3)CC1` (stereo not shown) [compound 830130], the Ki (read-out: D3 Ki) worked out at 6.68 nM.

Take `O=C(NC1CCN(CC2CCCCC2)CC1)[C@@H]1C[C@H]1CN1CCN(c2nn(-c3ccc(OC(F)(F)F)cc3)c3ccsc23)CC1` [A002437084]: where the note is “read-out: D3 Ki”, the Ki is 7.11 nM.

Regarding `O=C([C@@H]1C[C@H]1CN1CCC(c2noc3ccsc23)CC1)N1CCC(O)CC1` [compound 830250], the Ki (read-out: D3 Ki) is 48.6 nM.

Take `COc1c(F)ccc2c(C3CCN(CC4CC4C(=O)NC4CCC(C)CC4)CC3)noc12` (racemic) [compound 830134]: where the note is “read-out: D3 Ki”, the Ki came to 0.602 nM.

`C=CCN1CCN(C(=O)[C@@H]2C[C@H]2CN2CCN(c3csc4cc(C(F)(F)F)ccc34)CC2)CC1` [compound 832834]: the Ki (read-out: D3 Ki) turned out to be 12.2 nM.

Consider `O=C(NCCCc1nc2ccccc2[nH]1)C1CC1CN1CCC(c2noc3ccsc23)CC1` (racemic) [compound 831622], for which the Ki (read-out: D3 Ki) was determined as 34.6 nM.

`O=C(NCc1cccc(OC(F)(F)F)c1)[C@@H]1C[C@H]1CN1CCN(c2csc3cc(C(F)(F)F)ccc23)CC1` [compound 833062]: the Ki (read-out: D3 Ki) came to 55.4 nM.

As for `O=C([C@@H]1C[C@H]1CN1CCC(c2noc3ccsc23)CC1)N1CCN(CCCc2ccccc2)CC1` [compound 833131], for the setting “read-out: D3 Ki”, the Ki amounted to 16.8 nM.

Take `O=C(NCCCn1cnc2ccccc21)[C@@H]1C[C@H]1CN1CCC(c2noc3ccsc23)CC1` [compound 831377]: for the setting “read-out: D3 Ki”, the Ki was found to be 4.68 nM.

Consider `N=C(N)N1CCC(CNC(=O)[C@@H]2C[C@H]2CN2CCN(c3csc4cc(C(F)(F)F)ccc34)CC2)CC1` [compound 832496], for which, under “read-out: D3 Ki”, the Ki was found to be 3.66 nM.

`O=C(NCC1CCNCC1)[C@@H]1C[C@H]1CN1CCC(c2nn(CC(F)(F)F)c3ccsc23)CC1` [A002440435A]: the Ki (read-out: D3 Ki) was 305 nM.

Consider `CN1CCN(CCCNC(=O)[C@@H]2C[C@H]2CN2CCN(c3nn(-c4ccc(OC(F)(F)F)cc4)c4ccsc34)CC2)CC1` [A002287758], for which, where the note is “read-out: D3 Ki”, the Ki stood at 139 nM.

Consider `C[C@H]1CC[C@H](N2CC(CN3CCN(c4noc5ccsc45)CC3)CC2=O)CC1` (stereo partly shown) [832831DA], for which the Ki (read-out: D3 Ki) amounted to 1150 nM.

Take `CCN(C(=O)CCCN1CCN(c2csc3cc(C(F)(F)F)ccc23)CC1)C1CCCCC1` [compound 826809]: the Ki (read-out: d3Ki) was determined as 71 nM.

Consider `CC(C)(C)c1ccc(CN2CCN(C(=O)C3CC3CN3CCC(c4noc5ccsc45)CC3)CC2)cc1` (racemic) [compound 832157], for which the Ki (read-out: D3 Ki) was 0.226 nM.

For `O=C(C1CC1CN1CCC(c2noc3ccsc23)CC1)N1CCC(n2ccnc2)CC1` (racemic) [compound 832193], where the note is “read-out: D3 Ki”, the Ki stood at 13.1 nM.

In the case of `COc1cccc2c(C3CCN(C[C@@H]4C[C@H]4C(=O)NCCCN4CCCCC4)CC3)noc12` [compound 832108], the Ki (read-out: D3 Ki) turned out to be 178 nM.

Consider `CC(C)N1CCN(C(=O)[C@@H]2C[C@H]2CN2CCN(c3csc4cc(C(F)(F)F)ccc34)CC2)CC1` [compound 832833], for which the Ki (read-out: D3 Ki) was determined as 18.2 nM.

As to `O=C(NCCCn1cccc1)[C@@H]1C[C@H]1CN1CCC(c2noc3ccsc23)CC1` [compound 831376], the Ki (read-out: D3 Ki) is 40.3 nM.

Consider `CCC1CCC(NC(=O)C2CC2CN2CCC(c3ccccc3Cc3ccccc3)CC2)CC1` (racemic) [compound 830132], for which the Ki (read-out: D3 Ki) amounted to 9.26 nM.

Turning to `O=C(NC1CCN(Cc2cccc(Cl)c2)CC1)[C@@H]1C[C@H]1CN1CCC(c2noc3ccsc23)CC1` [compound 832728], the Ki (read-out: D3 Ki) was 3.12 nM.
